# Source: patent US12610948B2, “Choline chloride adjuvant for fatty acid based biopesticide” (Stratacor, Inc., priority 2020, dated 2026)
# Assays:
# [1] = tested on: Sensitive Horn Fly (Haematobia irritans); assay: Laboratory Petri dish incapacitation test, sensitive horn flies; type: in vivo; conditions: C8C10 organic aqueous emulsion, sensitive strain
# Text: (§1) Mixed sex stable flies (Stomoxys calcitrans) were obtained as pupae from a colony at the University of Nebraska West Central Research and Extension Center, North Platte, Nebraska. Mixed sex horn flies (Haematobia irritans), sensitive and knockdown resistant (Kdr), were obtained as pupae from a colony at The Center for Animal Health and Food Safety, New Mexico State University, Las Cruces, New Mexico. Adult horn and stable flies were allowed to emerge in 1 cubic foot cages at approximately 80 degrees Fahrenheit and were maintained on citrated whole blood (Quad Five, Rygate, Montana). Mixed sex house flies (Musca domestica) were obtained as pupae from Carolina Biological, Charlotte, North Carolina Adults were allowed to emerge in 1 cubic foot cages at approximately 80 degrees Fahrenheit and were maintained on water and sugar cubes. Mixed sex German cockroaches (Blattella germanica) were obtained as adults from Carolina Biological. Prior to use, roaches were kept with the supplied food source in paper towels contained in 1 cubic foot cages. Flies were used 4-6 days post emergence.
# (§2) An aqueous emulsion of the octanoic/decanoic acid mix (C8C10) was prepared by addition to an aqueous solution of the sodium salts of the fatty acids, prepared by mixing equal molar amounts of sodium hydroxide and fatty acid.
# insect = conditions: 1% choline chloride in distilled water
# Text: However, several factors (e.g., volatility, skin penetration, odor, irritation of the skin, eyes, and respiratory passages, leaf wilt, incapacitation reversibility, etc.) inherent to fatty acids may limit their practical use for certain applications as a biopesticide, especially when used at a high dosage.
# [2] = tested on: house flies (Musca domestica); assay: Laboratory Petri dish incapacitation test, house flies; type: in vivo; conditions: aqueous emulsion, N = 3-4
# Text: as §1, §2
# [3] = tested on: stable flies (Stomoxys calcitrans); assay: Laboratory Petri dish filter paper incapacitation test, stable flies; type: in vivo; conditions: 1 ml on 9 cm filter paper in Petri dish
# Text: as §1, §2
# [4] = tested on: German cockroaches (Blattella germanica); assay: Laboratory Petri dish incapacitation test, German cockroaches; type: in vivo; conditions: aqueous emulsion, 6 roaches per dish
# Text: as §1, §2
# [5] = tested on: Knockdown Resistant (Kdr) Horn Fly (Haematobia irritans); assay: Laboratory Petri dish incapacitation test, knockdown resistant (Kdr) horn flies; type: in vivo; conditions: C8C10 organic aqueous emulsion, Kdr strain
# Text: as §1, §2
# acetylcholine receptors = conditions: scale where acetylcholine is 100; Keyl et al., 1957; cited from earlier work
# [6] = type: in vitro ADME
# Text: The C8910 fatty acids are volatile (Reifenrath, 2015b), and 24-61% of the applied dose evaporated exponentially from clay formulation applied to skin. Skin penetration will also limit duration for dermal treatments (e.g., about 50-75% of the applied dose of octanoic and decanoic acid penetrated cattle skin from mineral oil). To provide finer control of these modes of loss, the development of longer lasting controlled-release formulations (clay nanotubes, disintegrating granules, and microcapsules) for use as premises spray and direct skin application for protecting cattle against biting flies and ticks was investigated (Reifenrath, 2015c), with none of the carriers showing an extended duration. Since that time, however, it has been shown that an aqueous dilution (to 1% C8910) of an emulsifiable concentrate could achieve a similar duration of effectiveness (2-3 days after a single treatment) as the 15% oil formulation. […] The limited duration of such a formulation can be overcome by more frequent application (e.g. walk-through sprayers).
structure (smiles),measurement,setting,value
"C[N+](C)(C)CCO.[Cl-] [Choline Chloride, 1.0%, Choline chloride]","% Incapacitation at 24 h (Mean +/− S.D., N = 3), Sensitive",[1],0 +/− 0%
same,insecticidal effect,insect,little or no insecticidal effect
same,% Incapacitation at 24 h (Mean +/− S.D.),[2],0 +/− 0%
same,"% Incapacitation at 24 h (Mean +/− S.D., N = 3)",[3],4 +/− 3%
same,"% Incapacitation at 24 h (Mean +/− S.D., N = 3)",[4],0 +/− 0%
same,"% Incapacitation at 24 h (Mean +/− S.D., N = 3)",[4]; listed as choline chloride,no effect
same,"% Incapacitation at 24 h (Mean +/− S.D., N = 3), Kdr",[5],2 +/− 4%
CCCC(=O)OCC[N+](C)(C)C [Formulation C4],relative potency,acetylcholine receptors,100
CCCCCCCC(=O)O [octanoic acid],applied dose penetrated cattle skin,[6],50-75%
CCCCCCCCCC(=O)O [decanoic acid],applied dose penetrated cattle skin,[6],50-75%
CCCCCC(=O)OCC[N+](C)(C)C [Formulation C6],relative potency,acetylcholine receptors,20
CCCCC(=O)OCC[N+](C)(C)C [Formulation C5],relative potency,acetylcholine receptors,54
